In patent US20240376091A1, “THIADIAZOLEAMIDE DERIVATIVES AND THEIR APPLICATIONS” (ZHEJIANG UNIVERSITY, priority 2021, published 2024):

Legend:
LNCaP xenograft = LNCaP xenograft model in vivo; details: intratumor injection 2.5 mg/kg/week
Description: Methods: LNCaP cells were injected to the Male CB17 SCID mice (6-8 weeks old). Once tumor size reached target value, the mice were randomized into three groups with 6-8 mice per group. […] The mice weight and tumor volume were periodically recorded. Finally, the tumors were harvested.

FL-AR^V684A = target: T1, FL-AR^V684A (Homo sapiens, UniProt P10275, V685A); test: Luciferase reporter assay in PC3 cells, AR V684A; type: cell-based; details: read-out: IC50 toward FL-AR^V684A
T1 construct: toward full-length (FL)-AR^WT and FL-AR^V684A; expressed in transfected cells; host or cells: PC3
T1 sequence (P10275 1-920 V685A): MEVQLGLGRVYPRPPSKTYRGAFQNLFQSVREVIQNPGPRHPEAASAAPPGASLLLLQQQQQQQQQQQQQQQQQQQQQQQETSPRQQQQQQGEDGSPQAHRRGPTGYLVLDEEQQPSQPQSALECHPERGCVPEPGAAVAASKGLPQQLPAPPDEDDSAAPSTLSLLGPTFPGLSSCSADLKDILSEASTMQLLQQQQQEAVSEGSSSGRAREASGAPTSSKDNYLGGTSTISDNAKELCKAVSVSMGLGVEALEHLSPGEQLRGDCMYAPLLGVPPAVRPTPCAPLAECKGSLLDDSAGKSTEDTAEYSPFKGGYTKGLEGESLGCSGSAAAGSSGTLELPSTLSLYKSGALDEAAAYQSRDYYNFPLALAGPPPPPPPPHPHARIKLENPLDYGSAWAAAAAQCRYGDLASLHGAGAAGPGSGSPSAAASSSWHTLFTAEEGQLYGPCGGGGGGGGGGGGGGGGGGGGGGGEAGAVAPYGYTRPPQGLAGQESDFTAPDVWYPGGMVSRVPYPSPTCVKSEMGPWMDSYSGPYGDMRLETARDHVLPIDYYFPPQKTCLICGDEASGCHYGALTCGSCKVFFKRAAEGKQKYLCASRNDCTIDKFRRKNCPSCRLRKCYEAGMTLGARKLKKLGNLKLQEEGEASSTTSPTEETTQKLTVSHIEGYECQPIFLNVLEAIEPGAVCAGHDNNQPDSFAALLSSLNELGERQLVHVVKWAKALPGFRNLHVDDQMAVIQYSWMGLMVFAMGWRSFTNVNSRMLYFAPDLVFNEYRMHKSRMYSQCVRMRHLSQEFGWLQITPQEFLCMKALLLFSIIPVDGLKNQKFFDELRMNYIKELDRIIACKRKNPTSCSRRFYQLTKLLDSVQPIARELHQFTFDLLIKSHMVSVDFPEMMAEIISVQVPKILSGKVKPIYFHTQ
Description: Detection principles: A reporter system for detecting the activities of firefly luciferase. To quantitatively detect the interaction between transcription factors and target promoters, the fluorescent intensities are detected to quantitatively evaluate the activities of firefly luciferase.
Methods: PC3 cells (no endogenous AR) treated with DMEM media supplemented with 5% CSS for 48 hours. Then, the PC3 cells (1.2×10^4/well) were seeded into 96-well plates. After 16 hours, the PC3 cells were transfected with 20 ng/well plasmid and incubated for 20 min at room temperature. After 1 day incubation, the media in the wells was replaced, followed by the addition of various concentrations of compounds. After 48 hours, the culture medium was discarded and the cells were washed with 100 μL PBS, followed by addition of 30 μL 1×PLB and the 96-well plates was shaken on a shaker for 20 min to ensure complete lysis of the cells. Then, the cell lysis supernatant (20 μL/well) was transferred to a white opaque 96-well, and addition of 30 μL Luciferase Assay Reagent II to each well. Then, the fluorescent intensities of firefly luciferase were evaluated. Afterwards, 30 μL Stop&Glo Reagant was added to the wells, and the fluorescent intensities of […] evaluated.

AR-LBD dimer = target: T2, AR-LBD dimer (Homo sapiens, UniProt P10275); test: Small-angle X-ray scattering (SAXS) of AR-LBD dimerization; details: AR-LBD 35 μM, DHT 10 μM, Enzalutamide 105 μM, A-1 105 μM
T2 sequence (P10275 669-900 limits assumed): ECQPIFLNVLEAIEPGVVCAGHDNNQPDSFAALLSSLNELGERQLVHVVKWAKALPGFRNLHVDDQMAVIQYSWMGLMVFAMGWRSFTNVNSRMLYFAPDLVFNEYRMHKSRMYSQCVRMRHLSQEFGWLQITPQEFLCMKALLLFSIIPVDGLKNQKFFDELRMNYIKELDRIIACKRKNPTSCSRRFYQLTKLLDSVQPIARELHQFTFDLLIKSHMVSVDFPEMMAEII
Text: Detection principles: SAXS is a vital technique for detecting conformational changes of biomacromolecule by quantitatively evalucate the overall dimension and shape silhouette of biomacromolecule.
The SAXS scattering signal were collected for 20 frames (1 second exposure time) using the BL19U2 beamline. The ATSAS software were applied to analysis the results.

## CC(=O)Cc1nsc(NC(=O)c2cc(-c3cccc(C(F)(F)F)c3)oc2C)n1 [Compound A-1, 2-Methyl-N-(3-(2-oxopropyl)-1,2,4-thiadiazol-5-yl)-5-(3-(trifluoromethyl)phenyl)furan-3-carboxamide]
LNCaP xenograft
  body weight: no significant loss of body weight
  tumor growth inhibition, tumor volume: much superior to that for Enzalutamide
  tumor growth inhibition, tumor weight: much superior to that for Enzalutamide
FL-AR^V684A
  IC50: 0.06 µM
AR-LBD dimer
  AR-LBD dimerization: inhibits AR-LBD dimerization
